# Results taken from patent US10676471B2, “Cycloalkyl-linked diheterocycle derivatives” (Pfizer Inc., priority 2014, dated 2020).
# Test system: BT20 Cell
# Test: Cancer Cell Lysate Total L-Glutamate Assay
# Format: cell-based
# Settings: Homo sapiens, BT-20, 2 h, total L-glutamate in cell lysate, BT20 cells, 2 hour incubation with test compound
# Method: Cancer Cell Lysate Total L-Glutamate Assay
# Cancer cell lines (BT20, HCT116, SKOV3, HCC70, SUM149, MDA-MB-231, etc.) were plated in 96 well plates and were used for the total L-glutamate assay when the monolayer was ca. 80% confluent. The media was changed and fresh media containing L-glutamine was added to the 96 well plates, just before incubation of the cells with test compound. The test compound was diluted in 100% DMSO using a two-fold or three-fold serial dilution. Small volumes of the dilutions of test compound were added to the 96 well plates so the final DMSO concentration was 0.5% v/v in the cell culture medium. The cells were incubated at 37° C., 5% CO2, and 95% air for 2 hours. Following the 2 hour incubation, the cells were washed with water 2 times. After the last water wash, 100 μL of 50 mM Tris-HCl pH 7.4 and 0.01% Tween-20 was added to each well and the plate was frozen at −80° C. The 96 well plate was frozen and thawed a total of 3 times and then sonicated for 5 min at 4° C. in a bath sonicator. Following sonication, the 96 well plate was centrifuged for 5 min at 1000 rpm and 10 μL of the supernatant was transferred to a 384 well assay plate.
# Total L-glutamate (L-glutamic acid) in the cell lysis supernatant was detected using glutamate oxidase, horseradish peroxidase and Amplex Red reagent (10-acetyl-3,7-dihydroxy phenoxazine, Invitrogen # A22177). In this assay, L-glutamate was oxidized by glutamate oxidase to produce alpha-ketoglutarate (2-oxopentane dioic acid), NH3 and H202. The H2O2 (hydrogen peroxide) was used by horseradish peroxidase (HRP) to oxidize the Amplex Red Reagent to resorufin which is a fluorescent molecule. When resorufin is excited with light with a wavelength 530-560 nm, it emits light at approximately 585 nm. For detection of total L-glutamate in 10 μL of lysate, 15 μL of an enzyme mixture was added to each well of the 384 well assay plate. The enzyme mixture consisted of 50 mM Tris-HCl pH 7.4, 0.01% Tween-20, 50 μM Amplex Red reagent (final concentration), 0.04 U/mL L-glutamate oxidase (final concentration), and 0.125 U/mL HRP (final concentration). The 384 well assay plate was incubated at room temperature for 5 min and then the fluorescence intensity of each well was measured at 585 nm using a 530-560 nm excitation wavelength in a plate based fluorimeter such as an LJL Analyst or a Tecan Infinite plate reader. Standard curves were constructed for this assay using dilutions of a L-glutamate standard. IC50 were calculated by plotting the relative fluorescent units vs log of the inhibitor concentration and fitting the data to the four parameter logistic equation.
# Reference: Chapman J. and Zhou M. (1999) Microplate-based fluorometric methods for the enzymatic determination of I-glutamate: application in measuring I-glutamate in food samples. Analytica Chim Acta 402:47-52.
row,IC50 [nM],SMILES
1,2,"C[C@H](c1nnc(NC(=O)Cc2ccccn2)s1)[C@H]1C[C@@H](c2nnc(NC(=O)Cc3ccccn3)s2)C1 (single isomer, unassigned) [Example 102, 2-(pyridin-2-yl)-N-{5-[(1-(cis)-3-{5-[(pyridin-2-ylacetyl)amino]-1,3,4-thiadiazol-2-yl}cyclobutyl)ethyl]-1,3,4-thiadiazol-2-yl}acetamide]"
2,5.9,"O=C(Cc1ccccn1)Nc1ccc(C[C@H]2CC[C@@H](c3nnc(NC(=O)c4ccccn4)s3)C2)nn1 (single isomer, unassigned) [Example 116, N-{5-[(cis)-3-({6-[(pyridin-2-ylacetyl)amino]pyridazin-3-yl}methyl)cyclopentyl]-1,3,4-thiadiazol-2-yl}pyridine-2-carboxamide]"
3,1.9,"CC(C)C(=O)Nc1nnc(C2CC3(CC(c4nnc(NC(=O)Cc5ccn(C)n5)s4)C3)C2)s1 (racemic) [Example 136, 2-methyl-N-{5-[6-(5-{[(1-methyl-1H-pyrazol-3-yl)acetyl]amino}-1,3,4-thiadiazol-2-yl)spiro[3.3]hept-2-yl]-1,3,4-thiadiazol-2-yl}propanamide]"
4,2.1,"CC(C)C(=O)Nc1nnc(C2CC3(CC(c4nnc(NC(=O)Cc5ccccn5)s4)C3)C2)s1 (racemic) [Example 135, 2-methyl-N-[5-(6-{5-[(pyridin-2-ylacetyl)amino]-1,3,4-thiadiazol-2-yl}spiro[3.3]hept-2-yl)-1,3,4-thiadiazol-2-yl]propanamide]"
5,7.5,"O=C(Cc1ccccn1)Nc1nnc(CC2CCC(c3nnc(Nc4cnccn4)s3)C2)s1 (racemic) [Example 87, (rac)-N-[5-({(cis)-3-[5-(pyrazin-2-ylamino)-1,3,4-thiadiazol-2-yl]cyclopentyl}methyl)-1,3,4-thiadiazol-2-yl]-2-(pyridin-2-yl)acetamide]"
6,0.2,"CCC(=O)Nc1nnc([C@H]2CC[C@@H](Cc3ccc(NC(=O)Cc4ccccn4)nn3)C2)s1 [Example 119, N-{5-[(1S,3R)-3-({6-[(pyridin-2-ylacetyl)amino]pyridazin-3-yl}methyl)cyclopentyl]-1,3,4-thiadiazol-2-yl}propanamide]"
7,295,"CC(=O)Nc1nnc(C[C@H]2CC[C@@H](c3nnc(NC(=O)Cc4ccccc4)s3)C2)s1 (single isomer, unassigned) [Example 45, N-{5-[(cis)-3-{[5-(acetylamino)-1,3,4-thiadiazol-2-yl]methyl}cyclopentyl]-1,3,4-thiadiazol-2-yl}-2-phenylacetamide]"
8,2700,"CC(=O)Nc1nnc(C[C@H]2CC[C@@H](c3nnc(NC(=O)Cc4ccccn4)s3)C2)s1 (single isomer, unassigned) [Example 56, N-{5-[(cis)-3-{[5-(acetylamino)-1,3,4-thiadiazol-2-yl]methyl}cyclopentyl]-1,3,4-thiadiazol-2-yl}-2-(pyridin-2-yl)acetamide]"
9,298,"CC(=O)Nc1nnc(C2CC3(C2)CC(c2nnc(NC(C)=O)s2)C3)s1 (racemic) [Example 141, N,N′-(spiro[3.3]heptane-2,6-diyldi-1,3,4-thiadiazole-5,2-diyl)diacetamide]"
10,1.3,"Cc1ccc(CC(=O)Nc2nnc(C[C@H]3C[C@H](c4nnc(NC(=O)Cc5ccc(C)cn5)s4)C3)s2)nc1 (single isomer, unassigned) [Example 109, 2-(5-methylpyridin-2-yl)-N-(5-{[trans-3-(5-{[(5-methylpyridin-2-yl)acetyl]amino}-1,3,4-thiadiazol-2-yl)cyclobutyl]methyl}-1,3,4-thiadiazol-2-yl)acetamide]"
11,0.5,"O=C(Cc1ccccn1)Nc1nnc(C[C@@H]2CC[C@H](c3nnc(Nc4ncccn4)s3)C2)s1 (single isomer, unassigned) [Example 84, 2-(pyridin-2-yl)-N-[5-({(cis)-3-[5-(pyrimidin-2-ylamino)-1,3,4-thiadiazol-2-yl]cyclopentyl}methyl)-1,3,4-thiadiazol-2-yl]acetamide]"
12,4.2,"O=C(CCn1cccn1)Nc1nnc(C[C@H]2CC[C@@H](c3nnc(NC(=O)Cc4ccccn4)s3)C2)s1 (racemic) [Example 143, (rac)-3-(1H-pyrazol-1-yl)-N-(5-{[(cis)-3-{5-[(pyridin-2-ylacetyl)amino]-1,3,4-thiadiazol-2-yl}cyclopentyl]methyl}-1,3,4-thiadiazol-2-yl)propanamide]"
13,0.1,"O=C(Cc1ccccc1)Nc1ccc(C[C@@H]2CC[C@H](c3nnc(NC(=O)Cc4ccccn4)s3)C2)nn1 [Example 80, 2-phenyl-N-(6-{[(1R,3S)-3-{5-[(pyridin-2-ylacetyl)amino]-1,3,4-thiadiazol-2-yl}cyclopentyl]methyl}pyridazin-3-yl)acetamide]"

# More lines, now with the values behind:
row,SMILES,IC50 [nM]
1,"C[C@H](C(=O)Nc1nnc([C@H]2CC[C@@H](Cc3nnc(NC(=O)[C@H](C)c4cccnc4)s3)C2)s1)c1cccnc1 (single isomer, unassigned) [Example 35, 2-(pyridin-3-yl)-N-(5-{[(cis)-3-(5-{[2-(pyridin-3-yl)propanoyl]amino}-1,3,4-thiadiazol-2-yl)cyclopentyl]methyl}-1,3,4-thiadiazol-2-yl)propanamide]",50.7
2,"CC(=O)Nc1nnc(CC2CCC(c3nnc(NC(=O)Cc4ccccc4)s3)C2)s1 (racemic) [Example 43, (rac)-N-{5-[(cis)-3-{[5-(acetylamino)-1,3,4-thiadiazol-2-yl]methyl}cyclopentyl]-1,3,4-thiadiazol-2-yl}-2-phenylacetamide]",94.4
3,"CC(C)(C)C(=O)Nc1nnc(CC2CCC(c3nnc(NC(=O)C(C)(C)C)s3)C2)s1 (racemic) [Example 27, (rac)-N-(5-{[(cis)-3-{5-[(2,2-dimethylpropanoyl)amino]-1,3,4-thiadiazol-2-yl}cyclopentyl]methyl}-1,3,4-thiadiazol-2-yl)-2,2-dimethylpropanamide]",242
4,"CCNc1nnc(C2CCC(Cc3nnc(NC(=O)Cc4ccccn4)s3)C2)s1 (racemic) [Example 24, (rac)-N-[5-({(cis)-3-[5-(ethylamino)-1,3,4-thiadiazol-2-yl]cyclopentyl}methyl)-1,3,4-thiadiazol-2-yl]-2-(pyridin-2-yl)acetamide]",78.9
5,"CC(=O)Nc1nnc(C2CCC(Cc3nnc(NC(=O)c4ccccc4)s3)C2)s1 (racemic) [Example 11, N-[5-({(cis)-3-[5-(acetylamino)-1,3,4-thiadiazol-2-yl]cyclopentyl}methyl)-1,3,4-thiadiazol-2-yl]benzamide]",47.9
6,"CC(=O)Nc1nnc([C@H]2CC[C@@H](Cc3nnc(NC(=O)Cc4ccccc4)s3)C2)s1 (single isomer, unassigned) [Example 14]",3.1
7,"CC(=O)Nc1nnc(C[C@H]2CC[C@@H](c3nnc(NC(C)=O)s3)C2)s1 (single isomer, unassigned) [Example 7]",3360
8,"CC(C)(C)C(=O)Nc1nnc(C[C@H]2CC[C@@H](c3nnc(NC(=O)C(C)(C)C)s3)C2)s1 (single isomer, unassigned) [Example 28, N-(5-{[(cis)-3-{5-[(2,2-dimethylpropanoyl)amino]-1,3,4-thiadiazol-2-yl}cyclopentyl]methyl}-1,3,4-thiadiazol-2-yl)-2,2-dimethylpropanamide]",3020
9,"CC(=O)Nc1nnc(C2CCC(Cc3nnc(NC(=O)Cc4ccccc4)s3)C2)s1 (racemic) [Example 15, N-[5-({(cis)-3-[5-(acetylamino)-1,3,4-thiadiazol-2-yl]cyclopentyl}methyl)-1,3,4-thiadiazol-2-yl]-2-phenylacetamide]",10.6
10,"C[C@H](C(=O)Nc1nnc(C[C@@H]2CC[C@H](c3nnc(NC(=O)[C@@H](C)c4cccnc4)s3)C2)s1)c1cccnc1 (single isomer, unassigned) [Example 33, 2-(pyridin-3-yl)-N-(5-{[(cis)-3-(5-{[2-(pyridin-3-yl)propanoyl]amino}-1,3,4-thiadiazol-2-yl)cyclopentyl]methyl}-1,3,4-thiadiazol-2-yl)propanamide]",7
11,"O=C(Cc1ccccc1)Nc1ccc(CC2CCC(c3nnc(NC(=O)Cc4ccccn4)s3)C2)nn1 (racemic) [Example 1, 2-phenyl-N-(6-{[(cis)-3-{5-[(pyridine-2-ylacetyl)amino]-1,3,4-thiadiazol-2-yl}cyclopentyl]methyl}pyridazin-3-yl)acetamide]",0.7
